Test results reported in patent US7595401B2, “Therapeutic compounds and their use in cancer” (Myriad Pharmaceuticals, Inc., priority 2006, dated 2009).
pIC50: −log10 of the molar value.

Target: purified human Hsp90
Experiment: Binding Assay: fluorescence polarization with BODIPY-labeled geldanamycin
Details: BODIPY-GM 10 nM, Hsp90 30 nM
Outline: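 Compounds in 2% DMSO final compete with 10 nM BODIPY-GM for 30 nM purified human Hsp90, incubated overnight at room temperature in pH 7.3 HEPES buffer containing Na2MoO4 and DTT. Polarization (mP, ex/em 485/530) normalized to DMSO gives percent inhibition; autofluorescence-confounded data excluded.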

SMILES | pIC50 | % Inhibition at 5 μM Compound Concentration
COc1ccc(OC)c(Sc2nc3c(N)nc(F)nc3n2CCc2ccccc2)c1 [Example 230, 8-[(2,5-Dimethoxyphenyl)thio]-2-fluoro-9-(2-phenylethyl)-9H-purin-6-amine] | 6.68 | 
Nc1ncn(CC(O)c2ccc(Cl)cc2Cl)c2nc(Sc3cc4c(cc3Br)OCO4)nc1-2 (stereo not shown) [Example 178, 2-[6-amino-8-(6-bromo-benzo[1,3]dioxol-5-ylsulfanyl)-purin-3-yl]-1-(2,4-dichloro-phenyl)-ethanol] |  | 9%
COc1cc(Sc2nc3c(N)ncnc3n2CCc2ccccc2)cc(OC)c1OC [Example 45, 9-Phenethyl-8-(3,4,5-trimethoxy-phensulfanyl)-9H-purin-6-ylamine] | 5.09 | 
COc1ccc(OC)c(Sc2nc3c(N)ncn(CCc4cccc(Cl)c4Cl)c-3n2)c1 [Example 74, 3-[2-(2,3-dichloro-phenyl)-ethyl]-8-(2,5-dimethoxy-phenylsulfanyl)-3H-purin-6-ylamine] |  | 0%
CC(C)(C)CC(=O)N1CCCC(CCn2c(Sc3cc4c(cc3Br)OCO4)nc3c(N)ncnc32)C1 (stereo not shown) [Example 454, 8-[(6-Bromo-1,3-benzodioxol-5-yl)thio]-9-{2-[1-(3,3-dimethylbutanoyl)piperidin-3-yl]ethyl}-9H-purin-6-amine] | 6.52 | 
N#Cc1cc2c(cc1Sc1nc3c(N)ncnc3n1CCc1ccccc1Cl)OCO2 [Example 326, 6-({6-Amino-9-[2-(2-chlorophenyl)ethyl]-9H-purin-8-yl}thio)-1,3-benzodioxole-5-carbonitrile] | 7.46 | 
Nc1ncnc2c1nc(Sc1cc3c(cc1Br)OCO3)n2CCC(N)C1CCCC1 (stereo not shown) [Example 691, 9-(3-Amino-3-cyclopentyl-propyl)-8-(6-bromo-benzo[1,3]dioxol-5-ylsulfanyl)-9H-purin-6-ylamine] | 6.90 | 
Nc1ncn(CC[C@H]2CCCN(C=O)C2)c2nc(Sc3cc4c(cc3Br)OCO4)nc1-2 [Example 603, (3R)-3-(2-{6-Amino-8-[(6-bromo-1,3-benzodioxol-5-yl)thio]-3 H-purin-3-yl}ethyl)piperidine-1-carbaldehyde] |  | 4.00%
CCOC(=O)N1CCCCC1CCn1c(Sc2cc(OC)ccc2OC)nc2c(N)ncnc21 (stereo not shown) [Example 337, 2-{2-[6-Amino-8-(2,5-dimethoxy-phenylsulfanyl)-purin-9-yl]-ethyl}-piperidine-1-carboxylic acid ethyl ester] | < 5.10 | 
Nc1ncnc2c1nc(Sc1cc3c(cc1Br)OCO3)n2CCN1CCCC1=O [Example 584, 1-(2-{6-Amino-8-[(6-bromo-1,3-benzodioxol-5-yl)thio]-9 H-purin-9-yl}ethyl)pyrrolidin-2-one] | 5.85 | 
CC12CCC(CC(CCn3c(Sc4cc5c(cc4Br)OCO5)nc4c(N)ncnc43)C1)O2 (stereo not shown) [Example 607, 8-[(6-Bromo-1,3-benzodioxol-5-yl)thio]-9-{2-[1-methyl-8-oxabicyclo[3.2.1]oct-3-yl]ethyl}-9 H-purin-6-amine] | 7.21 | 
COc1ccc(OC)c(Sc2nc3c(N)ncn(CCc4cccc(Br)c4)c-3n2)c1 [Example 78, 3-[2-(3-bromo-phenyl)-ethyl]-8-(2,5-dimethoxy-phenylsulfanyl)-3H-purin-6-ylamine] |  | 17%
COc1ccc(OC)c(Sc2nc3c(N)ncn(CCn4ccnc4)c-3n2)c1 [Example 336, 8-[(2,5-Dimethoxyphenyl)thio]-3-[2-(1H-imidazol-1-yl)ethyl]-3H-purin-6-amine] |  | 13.0%
CC(C)(C)OC(=O)N1CCCC[C@@H]1CCn1c(Sc2cc3c(cc2Br)OCO3)nc2c(N)ncnc21 [Example 394, tert-Butyl (2R)-2-(2-{6-amino-8-[(6-bromo-1,3-benzodioxol-5-yl)thio]-9H-purin-9-yl}ethyl)piperidine-1-carboxylate] | 6.15 | 
Nc1ncn(CCc2ccccc2)c2nc(Sc3cc(OC(F)(F)F)ccc3Cl)nc1-2 [Example 229, 8-{[2-Chloro-5-(trifluoromethoxy)phenyl]thio}-3-(2-phenylethyl)-3H-purin-6-amine] |  | 24%
COc1ccc(CN2CCCCC2CCn2c(Sc3cc4c(cc3Br)OCO4)nc3c(N)ncnc32)cc1 (stereo not shown) [Example 590, 8-[(6-Bromo-1,3-benzodioxol-5-yl)thio]-9-{2-[1-(4-methoxybenzyl)piperidin-2-yl]ethyl}-9 H-purin-6-amine] | 6.30 | 
COc1ccc(Sc2nc3c(N)ncn(CCc4ccccc4)c-3n2)c(OC)c1 [Example 16, 8-(2,4-dimethoxy-phenylsulfanyl)-3-phenethyl-3H-purin-6-ylamine] |  | 6%
Cn1nnnc1N1CCC(CCn2c(Sc3cc4c(cc3Br)OCO4)nc3c(N)ncnc32)CC1 [Example 609, 8-[(6-Bromo-1,3-benzodioxol-5-yl)thio]-9-{2-[1-(1-methyl-1 H-tetrazol-5-yl)piperidin-4-yl]ethyl}-9 H-purin-6-amine] | 7.35 | 

SMILES | pIC50 | % Inhibition at 5 μM Compound Concentration
Nc1ncnc2c1nc(Sc1cc3c(cc1Br)OCO3)n2CCc1ccc(F)cc1 [Example 249, 8-[(6-Bromo-1,3-benzodioxol-5-yl)thio]-9-[2-(4-fluorophenyl)ethyl]-9H-purin-6-amine] | 7.00 | 
CCCCNC(=O)Nc1ccc(CCn2cnc(N)c3nc(Sc4cc(OC)ccc4OC)nc2-3)cc1 [Example 278, N-[4-(2-{6-Amino-8-[(2,5-dimethoxyphenyl)thio]-3H-purin-3-yl}ethyl)phenyl]-N′-butylurea] |  | 1.0%
N#Cc1ccc(Sc2nc3c(N)ncn(CCc4ccccc4)c-3n2)cc1 [Example 20, 4-(6-amino-3-phenethyl-3H-purin-8-ylsulfanyl)-benzonitrile] | < 5.00 | 0%
COc1ccc(OC)c(Sc2nc3c(N)ncnc3n2CCC2(F)C(F)(F)C(F)(F)C(F)(F)C(F)(F)C2(F)F)c1 [Example 245, 8-[(2,5-Dimethoxyphenyl)thio]-9-[2-(undecafluorocyclohexyl)ethyl]-9H-purin-6-amine] |  | 1%
COc1ccc(Sc2nc3c(N)ncn(CCc4ccccc4)c-3n2)cc1Cl [Example 241, 8-[(3-Chloro-4-methoxyphenyl)thio]-3-(2-phenylethyl)-3H-purin-6-amine] |  | 0%
CC(C)(C)OC(=O)N1CCCC[C@H]1CCn1cnc(N)c2nc(Sc3cc4c(cc3Br)OCO4)nc1-2 [Example 417, tert-Butyl (2S)-2-(2-{6-amino-8-[(6-bromo-1,3-benzodioxol-5-yl)thio]-3H-purin-3-yl}ethyl)piperidine-1-carboxylate] |  | 0%
COc1cccc(CCn2cnc(N)c3nc(Sc4cc(OC)ccc4OC)nc2-3)c1 [Example 36, 8-(2,5-dimethoxy-phenylsulfanyl)-3-[2-(3-methoxy-phenyl)-ethyl]-3H-purin-6-ylamine] | < 5.30 | 
COc1ccc(OC)c(Sc2nc3c(N)ncn(CCc4cccc5ccccc45)c-3n2)c1 [Example 68, 8-(2,5-dimethoxy-phenylsulfanyl)-3-(2-naphthalen-1-yl-ethyl)-3H-purin-6-ylamine] |  | 0%
CCOC(=O)[C@@H]1C[C@H](CCn2c(Sc3cc4c(cc3Br)OCO4)nc3c(N)ncnc32)CCN1C(=O)OC(C)(C)C (relative stereo) [Example 422, 1-tert-Butyl 2-ethyl cis-4-(2-{6-amino-8-[(6-bromo-1,3-benzodioxol-5-yl)thio]-9H-purin-9-yl}ethyl)piperidine-1,2-dicarboxylate] | < 5.52 | 
Nc1ncn(CCc2ccc(O)cc2)c2nc(Sc3cc4c(cc3Br)OCO4)nc1-2 [Example 301, 4-(2-{6-Amino-8-[(6-bromo-1,3-benzodioxol-5-yl)thio]-3H-purin-3-yl}ethyl)phenol] |  | 5.0%
Nc1ncn(CCc2c(F)c(F)c(F)c(F)c2F)c2nc(Sc3cc4c(cc3Br)OCO4)nc1-2 [Example 42, 8-(6-bromo-benzo[1,3]dioxol-5-ylsulfanyl)-3-(2-pentafluorophenyl-ethyl)-3H-purin-6-ylamine] | < 5.30 | 
COc1ccc(OC)c(Sc2nc3c(N)ncnc3n2CCC2(F)C(F)(F)C(F)(F)C(F)(F)C(F)(F)C2(F)F)c1 [Example 384, 8-[(2,5-Dimethoxyphenyl)thio]-9-[2-(undecafluorocyclohexyl)ethyl]-9H-purin-6-amine] | < 6.00 | 
Nc1ncnc2c1nc(Sc1cc(OCc3ccccc3)c(OCc3ccccc3)cc1Br)n2CCC1CCN(C=O)CC1 [Example 553, 4-[2-(6-Amino-8-{[4,5-bis (benzyloxy)-2-bromophenyl]thio}-9 H-purin-9-yl)ethyl]piperidine-1-carbaldehyde] | < 5.30 | 
COc1cc(I)c(Sc2nc3c(N)ncnc3n2CCc2ccccc2Cl)cc1OC [Example 261, 9-[2-(2-Chlorophenyl)ethyl]-8-[(2-iodo-4,5-dimethoxyphenyl)thio]-9H-purin-6-amine] | < 4.60 | 
COc1ccc(OC)c(Sc2nc3c(N)ncnc3n2CCNC(C)(C)c2ccccn2)c1 [Example 334, 8-[(2,5-Dimethoxyphenyl)thio]-9-{2-[(1-methyl-1-pyridin-2-ylethyl)amino]ethyl}-9H-purin-6-amine] | 5.64 | 
Nc1ncn(CCc2ccsc2)c2nc(Sc3cc4c(cc3Br)OCO4)nc1-2 [Example 202, 8-(6-bromo-benzo[1,3]dioxol-5-ylsulfanyl)-3-(2-thiophen-3-yl-ethyl)-3H-purin-6-ylamine] |  | 9%
CC(=O)N1CCC(CCn2c(Sc3cc(F)c(F)cc3Br)nc3c(N)ncnc32)CC1 [Example 560, 9-[2-(1-Acetylpiperidin-4-yl)ethyl]-8-[(2-bromo-4,5-difluorophenyl)thio]-9 H-purin-6-amine] | < 5.30 | 
Nc1ncnc2c1nc(Sc1cc3c(cc1Br)OCO3)n2CCNc1cccc2cccnc12 [Example 574, N-(2-{6-Amino-8-[(6-bromo-1,3-benzodioxol-5-yl)thio]-9 H-purin-9-yl}ethyl)quinolin-8-amine] | 5.74 | 
